According to patent US5057325A, “Method of inhibiting replication of HIV with water-soluble melanins” (Vanderbilt University, priority 1990, dated 1991):

System: HIV-1 (HTLV-IIIB)
Format: cell-based
Conditions: at 1-100 μg/ml; in these assays (HTLV-IIIB, HTLV-IIIRF, HIV-2ROD infection of MT-2 cells)
Source text: The activity of the melanins for inhibiting replication of HIV can be confirmed by known assays, including particularly the assay described by Montefiori, et al., J. Clin. Microb., 26:231-235, 1988. That assay utilizes human T-cell lymphotropic virus type I-immortalized MT-2 cells as targets for infection. Cytolysis can be quantitated by vital dye uptake of poly-L-lysine-adhered cells as an endpoint for infection. The MT-cell assay has now been accepted as a standard screening test.
Antiviral activities of the synthetic water-soluble melanins derived as described in Example I from L-tyrosine, L-dopa, dopamine, serotonin, norepinephrine, L-dopa/glutathione, and L-dopa/ L-cysteine were measured in 96 well microdilution plates as described (Montefiori, et al., J. Clin. Microbiol. 26:231-235, 1988). Briefly, 2-fold serial dilutions of melanins were made in triplicate in a total of 100 ul growth medium (RPMI-1640 containing 12% heat-inactivated fetal bovine serum and 50 ug gentamicin/ml) per well. MT-2 cells (5×10^4) in 100 ul of growth medium were added to each well and incubated for 10 minutes. […] Viral-induced cytopathic effect (CPE) was quantitated 3 days later by vital dye (neutral red) uptake in remaining viable cells. […]

Substance	antiviral activity
L-dopa	no antiviral activity
L-tyrosine	no antiviral activity
